We go through 18 molecules from ChEMBL document CHEMBL1137920, “Design and synthesis of 1-(4-benzoylphenyl)imidazole derivatives as new potent 20-HETE synthase inhibitors” (Bioorg Med Chem Lett, 2004).

What is called IC50 is the concentration that inhibits the measured activity by half.

A short description of assay [1]: Inhibitory activity against 20-Hydroxy-5,8,11,14-eicosatetraenoic acid synthase from arachidonic acid in rat renal microsome.
A short description of assay [2]: Inhibitory activity against 20-Hydroxy-5,8,11,14-eicosatetraenoic acid synthase from arachidonic acid in human renal microsome.
A short description of assay [3]: Inhibitory activity against 20-Hydroxy-5,8,11,14-eicosatetraenoic acid synthase from arachidonic acid in human renal microsome.

`C#CCCCCCCCCCOS(=O)(=O)O` gave an IC50 in assay [1] of 7500 nM.
In the case of `Cc1cc(C(=O)c2ccc(-n3ccnc3)cc2)ccc1OCCCCCCCC(=O)O`, it took 44 nM to reach half-maximal inhibition in assay [2] (IC50).
Take `Cc1cc(C(=O)c2ccc(-n3ccnc3)cc2)ccc1OCCCCCC(=O)O`: the IC50 in assay [2] was determined as 7.9 nM.
For `Cc1ccc(OCCCCCCCC(=O)O)c(C(=O)c2ccc(-n3ccnc3)cc2)c1`, in assay [2], half-maximal inhibition (IC50) was put at 4800 nM. This IC50 is about 610-fold higher than that of the molecule before.
In assay [3], `Cc1cc(C(=O)c2ccc(-n3ccnc3)cc2)ccc1OCCCC(=O)O` gave an IC50 of 13 nM.
The molecule `O=C(O)CCCCCCCCCC=C(Br)Br` had an IC50 in assay [1] of 2000 nM.
As for `Cc1ccc(OCCCCC(=O)O)c(C(=O)c2ccc(-n3ccnc3)cc2)c1`, in assay [2], the IC50 came to 8380 nM. That is a single-digit micromolar value.
On the same count and under the same terms, next, `Cc1cc(C(=O)c2ccc(-n3ccnc3)cc2)ccc1OCCCCCCC(=O)O`: 22 nM.
In assay [1], `CCCCc1ccc(/N=C/NO)c(C)c1` showed an IC50 of 35.2 nM.
In turn, `Cc1ccc(OCCCCCCC(=O)O)c(C(=O)c2ccc(-n3ccnc3)cc2)c1` yielded an IC50 in assay [2] of 2460 nM.
On the same count and under the same terms, next, `Cc1ccc(OCCCCCCCCCC(=O)O)c(C(=O)c2ccc(-n3ccnc3)cc2)c1`: 6740 nM.
On the same count and under the same terms, next, `Cc1ccc(OCCCC(=O)O)c(C(=O)c2ccc(-n3ccnc3)cc2)c1`: greater than 10000 nM.
The same measure, in the same setting: to `Cc1cc(C(=O)c2ccc(-n3ccnc3)cc2)ccc1OCCCCC(=O)O` belongs 12 nM; to `Cc1ccc(OCCCCCC(=O)O)c(C(=O)c2ccc(-n3ccnc3)cc2)c1`, 3290 nM.
In turn, `O=C(c1ccccc1)c1ccc(-n2ccnc2)cc1` had an IC50 in assay [1] of 310 nM.
Same read-out and setting: to `C#CCCCCCCCCCCCCCCCC(=O)O` belongs greater than 5000 nM.
With `CS(=O)(=O)NC(=O)CCCCCCCCCC=C(Br)Br`, the concentration for half-maximal inhibition (IC50) in assay [1] came out at 2000 nM.
`Cc1cc(C(=O)c2ccc(-n3ccnc3)cc2)ccc1OCCCCCCCCCC(=O)O` showed an IC50 in assay [2] of 73 nM.
